From the NIST ThermoML archive (doi:10.1021/je800110r)
Numbers after ± are expanded uncertainties.

Details: Liquid, Vibrating tube method

CCCCCCCCCC [decane]
Details | mass density [kg/m3]
303.16 K, 24314 kPa | 740.3 ± 2
303.16 K, 24549 kPa | 740.5 ± 2
303.16 K, 24602 kPa | 740.4 ± 2
303.16 K, 24630 kPa | 740.5 ± 2
303.16 K, 24682 kPa | 740.5 ± 2.1
303.16 K, 24710 kPa | 740.6 ± 2.1
303.16 K, 24755 kPa | 740.6 ± 2.1
303.16 K, 24776 kPa | 740.5 ± 2.1
303.16 K, 25088 kPa | 740.7 ± 2.1
303.16 K, 25114 kPa | 740.9 ± 2.1
303.16 K, 25147 kPa | 740.9 ± 2.1
303.16 K, 25173 kPa | 740.9 ± 2.1
303.16 K, 25208 kPa | 740.9 ± 2.1
303.16 K, 25234 kPa | 740.9 ± 2.1
303.16 K, 25263 kPa | 740.9 ± 2.1
303.16 K, 25293 kPa | 741 ± 2.1
303.16 K, 25324 kPa | 740.9 ± 2.1
303.16 K, 25354 kPa | 741.1 ± 2.1
303.16 K, 25385 kPa | 741.1 ± 2.1
303.16 K, 25420 kPa | 741.1 ± 2.1
303.16 K, 25450 kPa | 741 ± 2.1
303.16 K, 25481 kPa | 741.1 ± 2.1
303.16 K, 25524 kPa | 741.1 ± 2.1
303.16 K, 25559 kPa | 741.1 ± 2.1
303.16 K, 25586 kPa | 741.1 ± 2.1
303.16 K, 25617 kPa | 741.1 ± 2.1
303.16 K, 25802 kPa | 741.3 ± 2.1
303.17 K, 10063 kPa | 730.2 ± 2
303.17 K, 10074 kPa | 730.3 ± 2
313.14 K, 1292 kPa | 715.7 ± 2
313.14 K, 1332 kPa | 715.8 ± 2
313.14 K, 1362 kPa | 715.8 ± 2
313.14 K, 1410 kPa | 715.8 ± 2
313.14 K, 1449 kPa | 715.7 ± 2
313.14 K, 1483 kPa | 715.9 ± 2
313.14 K, 1531 kPa | 715.8 ± 2
313.14 K, 1584 kPa | 715.9 ± 2
313.14 K, 1629 kPa | 716 ± 2
313.14 K, 1669 kPa | 716 ± 2
313.14 K, 1710 kPa | 716.1 ± 2
313.14 K, 1760 kPa | 716.1 ± 2
313.14 K, 1825 kPa | 716.1 ± 2
313.14 K, 1889 kPa | 716.2 ± 2
313.14 K, 1951 kPa | 716.3 ± 2
313.14 K, 2000 kPa | 716.3 ± 2
313.14 K, 2044 kPa | 716.3 ± 2
313.14 K, 2096 kPa | 716.3 ± 2
313.14 K, 2138 kPa | 716.4 ± 2
313.14 K, 2175 kPa | 716.4 ± 2
313.14 K, 2217 kPa | 716.4 ± 2
313.14 K, 2260 kPa | 716.5 ± 2
313.14 K, 2304 kPa | 716.5 ± 2
313.14 K, 2364 kPa | 716.6 ± 2
313.14 K, 2419 kPa | 716.7 ± 2
313.14 K, 2474 kPa | 716.7 ± 2
313.14 K, 2523 kPa | 716.8 ± 2
313.14 K, 2591 kPa | 716.7 ± 2
313.14 K, 2653 kPa | 716.8 ± 2
313.14 K, 2699 kPa | 716.8 ± 2
313.14 K, 2782 kPa | 717 ± 2
313.14 K, 2826 kPa | 717.1 ± 2
313.14 K, 2854 kPa | 717 ± 2
313.14 K, 2900 kPa | 716.9 ± 2
313.14 K, 2941 kPa | 717.2 ± 2
313.14 K, 2970 kPa | 717 ± 2
313.14 K, 3000 kPa | 717.1 ± 2
313.14 K, 3048 kPa | 717.2 ± 2
313.14 K, 3086 kPa | 717.2 ± 2
